Test results: article PMC6424980, “Distinct G protein-coupled receptor phosphorylation motifs modulate arrestin affinity and activation and global conformation” (Nature Communications, 2019)
“Also recorded” adds a separate entry of the source.

How the values were obtained:
[1] = tested on: arrestin-1 mutants I72B and F197NBD with nonphosphorylated light-activated rhodopsin in ROS membranes; assay: Ternary complex formation (site-directed fluorescence and centrifugal pull-down); format: biochemical, bovine; conditions: 10 µM rhodopsin in ROS, 1 µM arrestin-1 I72B or F197NBD, 100 µM peptide, pH 7
Description: Recombinant bovine arrestin-1 cloned into the pET15b vector was expressed and purified as described. The basic construct was a modified wild-type sequence that contained no native cysteines (C63A, C128S and C143A) nor tryptophans (W194F). Single cysteine residues were introduced by PCR at sites 72 or 197 as previously described. The I72C mutant was labeled with monobromobimane (Thermo Fisher) and is referred to as I72B. The F197C mutant was labeled with N,N′-Dimethyl-N-(Iodoacetyl)-N′-(7-Nitrobenz-2-Oxa-1,3-Diazol-4-yl)Ethylenediamine (IANBD amide, Thermo Fisher) and is referred to as F197NBD. Labeling was carried out as previously described[43],[61]. Both labeled mutants were assessed to be functionally similar to wild-type arrestin-1 using the Extra Meta II assay, which determines the ability of arrestin-1 to bind and stabilize the active Meta II form of rhodopsin[64].
Under dim-red light, samples were prepared that contained nonphosphorylated rhodopsin (10 µM) in ROS membranes, 1 µM arrestin-1 I72B or F197NBD, ±100 µM peptide in 50 mM HEPES, 130 mM NaCl, pH 7 (150 or 200 µl sample volume). One hundred microliters of the sample was used for fluorescence measurements, and the remainder was used for the centrifugal pull-down assay (50 µl per assay). Steady-state fluorescence measurements were performed using a SPEX Fluorolog (1680) instrument in front-face mode. Bimane fluorescence was recorded using an excitation wavelength of 400 nm and emission 424–600 nm, and NBD fluorescence was recorded using an excitation wavelength of 500 nm and emission 524–660 (2 nm step size, 0.5 s integration per point). Excitation slits were narrowed to 0.1−0.2 nm to minimize light-activation of rhodopsin, and emission slits were set at 4 nm. Pull-down analysis was performed by centrifuging samples at 16,000 × g for 10 min at 20 °C. Selected samples were light activated (>495 nm) for 15 s prior to centrifugation (appr. 60 s delay time). Following centrifugation, the supernatants were removed, and the pellets were solubilized in loading buffer containing 2% SDS and subjected to SDS PAGE. Bands were visualized using Coomassie Brilliant Blue.

[2] = molecular target: T1, arrestin-1 (monomerizing mutant F85A, F197A) (Bos taurus, UniProt P08168, F197A/F85A); assay: Fluorescence anisotropy binding of fluorescein-labelled peptides to arrestin-1; parameters: species or system bovine
T1 construct: made in house; host or cells: E. coli NiCo (DE3) cells (New England Biolabs), pET-15b vector
T1 sequence (P08168 whole entry F85A/F197A): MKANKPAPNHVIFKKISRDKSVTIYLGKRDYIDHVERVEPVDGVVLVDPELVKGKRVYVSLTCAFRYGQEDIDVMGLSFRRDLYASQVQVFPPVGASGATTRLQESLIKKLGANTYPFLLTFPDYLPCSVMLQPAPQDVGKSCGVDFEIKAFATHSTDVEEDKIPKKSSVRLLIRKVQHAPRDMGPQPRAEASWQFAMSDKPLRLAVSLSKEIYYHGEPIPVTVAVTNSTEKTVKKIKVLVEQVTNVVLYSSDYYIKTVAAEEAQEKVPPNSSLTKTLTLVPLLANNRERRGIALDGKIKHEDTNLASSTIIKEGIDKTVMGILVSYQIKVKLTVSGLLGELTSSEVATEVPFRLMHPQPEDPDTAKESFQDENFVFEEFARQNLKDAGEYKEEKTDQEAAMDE
Description: (§1) Synthesized cDNAs of bovine arrestin-1, human arrestin-2 and human arrestin-3 were ordered from Genewiz, amplified by PCR and cloned (Supplementary Information Table 5) into the pET-15b vector (Novagen), using the Gibson Assembly protocol. The constructs contained an N-terminal hexa histidine tag linked by a linker that contained a Tobacco Etch Virus cleavage site (TEV; […]). PCR was used to introduce the monomerizing arrestin-1 mutations (F85A, F197A)[58]. Note that this mutant was employed for fluorescence anisotropy, trypsin digestion, and NMR experiments. Wild-type arrestin-2 and -3 were used for fluorescence anisotropy and trypsin digestion experiments. […] The arrestin-1 in this construct had the wild-type sequence. Note that this construct differs slightly from that previously published[59],[60] and was optimized for purification. We verified the functionality of this fusion construct using the standard centrifugal pull-down assay using phosphorylated rhodopsin in native ROS membranes.
0.1–0.2 mg of lyophilized peptide was dissolved in 50 µl of 50 mM phosphate-buffered saline (PBS) buffer at pH 7.0, and then two molar equivalents of fluorescein-5-maleimide dye stock dissolved in dimethylsulfoxid was added. The reaction was carried out at RT in the dark. After 1 h the reaction was topped up with 1 ml of ice-cold 100% acetone and stored until the next day at −20 °C. The precipitated peptide was centrifuged (13,000 × g) for 10 min. The labeled and precipitated peptide was sedimented, and the supernatant was removed. The peptide was resuspended again in ice-cold acetone, stored for 1 h at −20 °C and centrifuged (13,000 × g) for 10 min. […] The precipitated peptide was dried at RT in the dark. It was dissolved in 50 µl of 20 mM Bis-Tris propane pH 7.0 and 150 mM NaCl and its concentration was determined by absorbance. A molar extinction coefficient of 70,000/M/cm at pH 7.0 was assumed for calculating the concentration of the labeled peptide stock.
An 11-step serial dilution series of arrestin in 20 mM Bis-Tris propane pH 7.0, 150 mM NaCl, 8 mM 2‑mercaptoethanol, 2% (w/w) BSA, 0.02% (v/v) Tween-20 was prepared and transferred to a black high-bottom 384-well plate (Greiner). As control for free peptide, a position with only buffer was included. The peptide was added at a final concentration of 20 nM to each well. The plate was closed by a clear cover and vortexed for 15 s. Afterwards it was centrifuged (800 × g) for 2 min and stored at RT for 20 min. The reading was performed by default settings of PHERAstar plate-reader (BMG Labtech) and excitation‑/emission-wavelengths of 485 nm (12 nm bandpass)/520 nm (30 nm bandpass) were used. The analysis was performed using Origin2016 (Microcal Inc) software by fitting the data to a one-to-one binding model:2 r=R0+△R*P/Kd+P, where r stands for anisotropy, R0 stands for anisotropy of the ligand, ΔR stands for anisotropy of the complex minus anisotropy of the ligand, P stands for the concentration of protein, and Kd stands for the dissociation constant of the ligand.

[3] = tested on: arrestin-2; assay: Fluorescence anisotropy binding of fluorescein-labelled peptides to arrestin-2; parameters: species or system human
Description: as §1
0.1–0.2 mg of lyophilized peptide was dissolved in 50 µl of 50 mM phosphate-buffered saline (PBS) buffer at pH 7.0, and then two molar equivalents of fluorescein-5-maleimide dye stock dissolved in dimethylsulfoxid was added. The reaction was carried out at RT in the dark. […] It was dissolved in 50 µl of 20 mM Bis-Tris propane pH 7.0 and 150 mM NaCl and its concentration was determined by absorbance. […]

Sequence: CDDEASTTVSKTETSQVAPA [5P, multiply phosphorylated rhodopsin C-terminus peptide lacking key site pS343]
- ternary complex formation (arrestin-1, nonphosphorylated rhodopsin, peptide) [1]: significant reduction of ternary complex formation; also recorded: could still stimulate ternary complex formation
- binding to arrestin-1 (in words) [2]: significant loss of affinity
- binding to arrestin-2 (in words) [3]: bound well
